Source: patent publication US20070078148A1, “Agents for preventing and/or treating higher brain dysfunctions” (Kyowa Hakko Kogyo Co., Ltd., priority 2003, published 2007)
Marks after values point to notes of the source that are not given here.

Key:
Format in all cases: in vivo, rat
SD male rats = assay: Test for learning of active avoidance (shuttle box, conditioned avoidance behavior); conditions: 1 hour before the test; for Avoidance rate (%): average in 10 rats, Solvent 90.8
Method: Experiment was carried with using 10 SD male rats (body weight: 220-280 g) for one group.
Using a shuttle box apparatus consisting of two boxes (TK-401S; Unicom), the rats were made to learn and train (escape training) conditioned avoidance behavior. In one trial in the escape training, an alarm stimulus by light and buzzer sound as a conditioned stimulus was given to the rats for 8 seconds. […] Repetition of the trial was conducted at interval times of 5 seconds, and the escape training was repeated 50 trials/1 training/1 day for 10 days.
The test compound was used as a suspension in injectable distilled water containing 0.3% Tween-80 (by Otsuka Pharmaceutical Co., Ltd.; 0.3% Tween-80 solution) and orally administered to each of the rats at a dose of 10 mL/kg 1 hour before the test (Test compound-administered group). Separately, 0.3% Tween-80 solution alone was orally administered to each of the rats at a dose of 10 mL/kg 1 hour before the test (Solvent-administered group).
For analysis of the test results, various parameters were inputted in a personal computer (NEC; PC-9821Xe) and the avoidance rate (%) (average in 10 rats; the rats which took avoidance behavior by an alarm stimulus was regarded as successful escape; the avoidance rate when the rat succeeded in escaping all 50 trials was regarded as 100%) and the change of the total reaction latency (the time required for the completion of the whole trial) were compared with those of Solvent-administered group. The analysis was carried out by a Steel-test.

[1] = system: Wistar female rats with bilateral ligation of the common carotid arteries; assay: Maze-learning test in rats prepared by bilateral ligation of the common carotid arteries; conditions: FIG. 1
Method: Experiment was carried out using 10 Wistar female rats (body weight 210-310 g) for one group.
Under anesthesia with pentobarbital, the necks of rats were incised and the bilateral common carotid arteries were ligated (ligated rats). Separately, the necks of rats were incised but the bilateral common carotid arteries were not ligated (sham operation rats). Under anesthesia with pentobarbital, the rat was fixed on a brain-fixing apparatus for rat (Narishige; SR-6). Hydrogen electrodes (Unique Medical; UHE-100, IS needle type) were inserted into a brain coordinate (A2.0, L2.0, D-2.0). Hydrogen indifferent electrode (Unique Medical) was placed on the rat's neck. An artificial respiration was applied to the rat through a respiratory apparatus (Shinano Seisakusyo; SN-480-7), through which about 40 mL of hydrogen gas was forcibly inhaled 2 or 3 times at intervals of about 15 minutes. […]
Running for the maze-learning test was performed twice. […] At that time, the frequency of selection of the lanes required for obtaining the 4 hollows of milk was recorded up to 16th round of selection.
The maze-learning test was started from 4 weeks after the bilateral ligation of the common carotid arteries. […] The lanes on which blocks were placed in the first running were determined according to each rat and were maintained constantly during the test period. […]

albino female rats = assay: Test for learning of passive avoidance (scopolamine-induced impairment of memory); conditions: for Rate of the rats exhibiting passive avoidance behavior (%) / Rate of the rats exhibiting passive avoidance behavior (rats/total): 2 hours after administration
Method: Experiment was carried out using 32 albino female rats (body weight: about 100 g) for one group.
Test for learning of passive avoidance was conducted in a test box (40 cm×31 cm×29 cm) in which a stainless steel grid was spread on the floor so that an electric shock of 1.1 mA can be give randomly. In the test box, a plastic plate (15 cm×5 cm) of 0.5 cm thickness was placed at a corner to cover the floor; and the test box comprised a mechanism that when a rat placed on the plate steps down on the floor grid, the rat results in receiving an electric shock. Usually, the rat attacked by an electric shock immediately gets back on the plastic plate but tries to get down on the floor; then, the rat is attacked by an electric shock again. Usually, the rat gradually changes its behavior with repetition of the shock (learning and training), resulting in staying on the plastic plate (passive avoidance behavior).
After the learning and training, the rats keeping the memory were selected and used for the test based on the memory-keeping test as mentioned below.
The test compound was used as a suspension thereof in distilled water containing 0.3% Tween-80; and scopolamine was used as a solution thereof in distilled water (by Sigma).
To each of the rats which learned the passive avoidance behavior, immediately after learning, 1 mg/kg (2 mL/kg volume) of scopolamine (subcutaneous administration) and 2 mL/kg volume of a test compound (oral administration) was administered simultaneously (Test compound-administered group); and 2 hours after administration, the rats were evaluated whether they kept memory of learning of the passive avoidance behavior. Separately, to each of the rats which learned the passive avoidance behavior, immediately after learning, 2 mL/kg volume of 0.3% Tween-80 solution alone was orally administered, and the rats were referred to as Solvent-administered group; while in the same manner, the rats to which 1 mg/kg of scopolamine (2 mL/kg volume) each were administered subcutaneously, were referred to as Scopolamine-administered group.

Wistar (Han) male rats = assay: Test for learning a delayed alternating problem (non-matching to sample, Skinner box); conditions: 0.3 mg/kg oral once a day
Method: The test was carried out in a manner similar to the method as described in Drug Dev. Res., 35, p.83-95 (1996).
Experiment was carried out using 10 Wistar (Han) male rats (body weight 200-250 g) for one group.
A Skinner box (30 cm×25 cm×30 cm) equipped with 3 pull-type lever (at the center, left and right sides) connected to a feeding vessel (supplying 45 mg diet pellet) was used in the experiment. The control of the test condition and the data accumulation were automatically conducted by connecting with a MED.PC program system.
Each rat received learning and training of lever pushing, and thereafter learning and training of a delayed alternating problem. In the learning and training of lever pushing, the rat learned and was trained so that the diet could be obtained by pushing any one of the center, left and right pull-type levers. In the subsequent learning and training of delayed alternating problem, the rat learned and was trained that the diet could be obtained by pushing any one of the left and right levers at first, and then the pushed lever was withdrawn; then, 5 seconds after that, both of the left and right levers were presented, but the diet was supplied only when the opposite side lever of the one pushed previously was pushed.
The test compound was used as a suspension thereof in injectable distilled water containing 0.5% methylcellulose (MC) (Otsuka Pharmaceutical Co.) and was administered orally to each of the rats which learned and trained the lever pushing at a dose of 10 mL/kg volume once a day from the start of learning and training of a delayed alternating problem continuously for a week (Test compound-administered group). Separately, to each of the rats which learned and trained the lever pushing, 0.5% MC solution alone was orally administered at a dose of 10 mL/kg volume once a day from the start of learning and training of a delayed alternating problem continuously for 1 week, and the rats were referred to as Solvent-administered group.
The accuracy rate for the reaction was indicated by the rate (%) of correctly selecting the left or right lever (average of 10 rats), and the test results were analyzed by one-way ANOVA-Student's t test.

[2] = 0.3 mg/kg oral with scopolamine 1 mg/kg s.c.
[3] = 3.0 mg/kg oral with scopolamine 1 mg/kg s.c.
[4] = 30 mg/kg oral with scopolamine 1 mg/kg s.c.

SMILES | Time required for completion of the whole trial (sec) (SD male rats; 0.3 mg/kg oral, Solvent 99.1) | Time required for completion of the whole trial (sec) (SD male rats; 3.0 mg/kg oral, Solvent 99.1) | Decrease of the learning results (lane selection frequency, second running) caused by bilateral ligation of the common carotid arteries ([1]; 1 mg/kg oral one hour before first trial, p<0.025 vs Solvent-administered group) | Decrease of the learning results (lane selection frequency, second running) caused by bilateral ligation of the common carotid arteries ([1]; 3 mg/kg oral one hour before first trial, p<0.005 vs Solvent-administered group) | Time required for completion of the whole trial (SD male rats; 0.03 mg/kg oral, Solvent 99.1) | Avoidance rate (%) (SD male rats; 0.03 mg/kg oral) | Avoidance rate (%) (SD male rats; 0.3 mg/kg oral) | Rate of the rats exhibiting passive avoidance behavior (%) (albino female rats; [2]) | Rate of the rats exhibiting passive avoidance behavior (rats/total) (albino female rats; [2]) | Rate of the rats exhibiting passive avoidance behavior (%) (albino female rats; [3]) | Rate of the rats exhibiting passive avoidance behavior (rats/total) (albino female rats; [3]) | Rate of the rats exhibiting passive avoidance behavior (%) (albino female rats; [4]) | Rate of the rats exhibiting passive avoidance behavior (rats/total) (albino female rats; [4]) | Rate of the rats exhibiting the passive avoidance behavior in comparison with Scopolamine-administered group (albino female rats; administered simultaneously with scopolamine, p<0.05 Two-tailed Chi Square test) | Accuracy Rate for the reaction everyday (%) (Mean ± Standard deviation) (Wistar (Han) male rats; 1st day, Solvent 48.3 ± 2.9) | Accuracy Rate for the reaction everyday (%) (Mean ± Standard deviation) (Wistar (Han) male rats; 3rd day, Solvent 39.4 ± 2.9) | Accuracy Rate for the reaction everyday (%) (Mean ± Standard deviation) (Wistar (Han) male rats; 5th day, Solvent 47.7 ± 2.1) | Accuracy rate for the reaction in a week (%) (Mean ± Standard deviation) (Wistar (Han) male rats; in a week, Solvent 45.4 ± 1.6, 0.3 mg/kg) | Rate of the rats exhibiting passive avoidance behavior (rats/total) (albino female rats; scopolamine alone 1 mg/kg s.c., Solvent 26/32)
COc1cc(/C=C/c2nc3c(c(=O)n(C)c(=O)n3C)n2C)cc(OC)c1OC [Compound 1] | significantly reduced | significantly reduced | significantly improved | significantly improved | – | – | – | – | – | – | – | – | – | – | – | – | – | – | –
CCn1c(=O)c2c(nc(/C=C/c3ccc(OC)c(OC)c3)n2C)n(CC)c1=O [Compound 2] | 64.9 * sec | 65.3 ** sec | – | – | 81.2 s | 96.2% | 97.2% | (53.1%) | 17/32* | (75.0%) | 24/32* | (84.4%) | 27/32* | significantly increased | 49.7 ± 2.1 NS % | 49.4 ± 3.4 % | 60.0 ± 3.0 % | 50.6±1.5% | –
CN1[C@@H]2C[C@@H](OC(=O)[C@H](CO)c3ccccc3)C[C@H]1[C@@H]1O[C@@H]12 [Scopolamine, scopolamine, reference compound] | – | – | – | – | – | – | – | – | – | – | – | – | – | – | – | – | – | – | 4/32
